Experimental data from patent US12044651B2, “Sensor device and methods” (SCENTIAN BIO LIMITED, priority 2016, dated 2024).

How the values were obtained:
[1] = QCM-D control with empty liposomes (Example 6); conditions: empty liposomes immobilised on the QCM
Procedure: Gold (100 nm) sensor crystals were sonicated in ethanol and milli-Q water for 15 minutes each respectively. A 5:1:1 volume ratio of milli-Q water, ammonia (25%), and hydrogen peroxide (30%) was heated to 75° C. for 5 minutes and the sonicated crystals were placed in the heated solution for 5 minutes. Then the crystals were removed from the solution and rinsed with milli-Q water before drying with nitrogen gas. The clean gold crystals were thiol-functionalized by exposing them to 2 mM ethanolic solution of MHA overnight followed by washing with ethanol solution in order to remove excess or loosely bound molecules. The SAM functionalized crystals were then placed into the Q-sense analyser instrument (Biolin Scientific) chamber and flowed with the NHS/EDC, OR22a/liposomes and various concentrations of methyl hexanoate (1.6 μM, 8 μM, 40 μM, 200 μM and 1 mM) in PBS buffer solution to measure the changes in frequency (Δf) and dissipation (ΔD) values.

[2] = CNT-FET control covalently functionalized with empty nanodiscs (Example 3); conditions: empty nanodiscs 1:100 dilution; increasing amounts of ligand
Procedure: The dispersion was sonicated until a clear solution was obtained. The temperature was kept at 25° C. throughout the sonication process. The thiolpyridine solution was prepared by dissolving 10 mg of 2-Mercaptopyridine (99%, Sigma Aldrich) in 1 ml of methanol. The solution was spun coated on a polydimethylsiloxane (PDMS) surface at 2000 rpm for one minute. Before the spin coating process, the PDMS surface was cleaned by a 50 W Oxygen plasma for 1 minute to improve the wettability. The cleaned substrates were placed upside down on the PDMS surface for three minutes and washed in ethanol to remove the excess thiolpyridine molecules. Then the substrates were transferred into the CNT suspension and immersed into the suspension for 10 minutes. The samples were removed from the suspension and dipped into Ethanol for another 10 minutes to remove the thiolpyridine molecules in the SWNT network. The alignment markers were deposited by defining the markers by photolithography and thermal evaporation of 5 nm Chromium and 50 nm of Gold. The metal Lift off was done by acetone immersion for 15 minutes followed by an Isopropyl alcohol (IPA) wash and N2 blow dry. The result is a uniform thin film CNT network covering the entire substrate surface. Nanodiscs were prepared using a protocol modified from Bayburt et al. 2010 and 2003^55, 56. Nanodiscs were formed at an MSP:protein:lipid ratio of 1:0.2:150. […]

Structure (SMILES) | increase in oscillation frequency [1] | current response [2]
CCCCCC(=O)OC [methyl hexanoate] | not observed | –
COC(=O)c1ccccc1O [methyl salicylate] | – | no increase in current
